The values below come from patent publication US20240002326A1, “COMPOUNDS AND USE THEREOF IN METHODS OF TREATMENT” (The University of Queensland, priority 2016, published 2024).

In the assay the target is ovine COX1 (Ovis aries (Sheep), UniProt P05979). The assay can be described thus: COX1 enzymatic assay. It counts as biochemical. Conditions: up to a concentration of 200 μM. As to the method: COX inhibition activity was measured using COX1 and COX2 inhibitor screening assay kits from Cayman Chemical Company (Ref #701090 and 701080). All compounds were tested in quadruplicate at a single 200 μM concentration in 2% v/v final DMSO. Compounds were preincubated with ovine COX1 or human COX2 at 37° C. for 10 min before incubation with COX substrate arachidonic acid for another 3 min. Reactions were stopped by addition of concentrated hydrochloric acid. Prostanoid standard curve was prepared and enzyme immunoassay performed as per manufacturer's description. […] Prostanoid standards values were plotted as logit (B/B0) versus log concentrations and fitted with linear regression using GraphPad Prism version 6.0. Standard curve linear fit was used to calculate each samples concentrations.
Chain of ovine COX1 (P05979 25-600): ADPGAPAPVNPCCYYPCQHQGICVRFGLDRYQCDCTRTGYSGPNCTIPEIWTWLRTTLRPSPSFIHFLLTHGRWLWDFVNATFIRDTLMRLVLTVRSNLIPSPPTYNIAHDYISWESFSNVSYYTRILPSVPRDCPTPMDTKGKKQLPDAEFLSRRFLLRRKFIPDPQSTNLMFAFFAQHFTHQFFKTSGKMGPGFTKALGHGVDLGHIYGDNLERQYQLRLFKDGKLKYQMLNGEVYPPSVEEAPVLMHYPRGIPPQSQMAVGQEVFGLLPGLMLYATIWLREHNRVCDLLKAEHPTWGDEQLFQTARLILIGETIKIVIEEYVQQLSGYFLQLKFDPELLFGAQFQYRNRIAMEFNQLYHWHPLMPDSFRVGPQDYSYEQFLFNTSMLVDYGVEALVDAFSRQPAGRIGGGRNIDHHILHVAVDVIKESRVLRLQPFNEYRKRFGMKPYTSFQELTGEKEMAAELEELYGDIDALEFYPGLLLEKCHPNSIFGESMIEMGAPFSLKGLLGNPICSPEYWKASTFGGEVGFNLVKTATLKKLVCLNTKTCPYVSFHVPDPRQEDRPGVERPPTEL

Take `O=C(O)c1c(O)cccc1COCCc1ccccc1` [Sm5]: the COX-1 inhibitory activity result is recorded as “None of the SOX18 inhibitor display any COX-1 or COX-2 inhibitory activity”.
